Measured values published in US4200642A, “Spiro-oxazolidindiones” (Pfizer Inc., priority 1978, dated 1980).
Values joined by “and” are separate entries in the source; they are usually repeats but may differ in a detail not shown here. Equal values may be shown once.

Key:
[1] = target: T1, aldose reductase (Bos taurus, UniProt P16116); test: inhibition of aldose reductase enzyme activity (partially purified enzyme from calf lens); format: biochemical; conditions: / indicates results of duplicate tests; for inhibition at 1 µM: 10^-6 M
T1 construct: partially purified aldose reductase enzyme obtained from calf lens; from tissue; host or cells: calf lens
Experimental: Spiro-oxazolidindiones prepared as described in the previous examples were tested for their ability to reduce or inhibit aldose reductase enzyme activity, following the procedure described in U.S. Pat. No. 3,821,383 and based on the procedure of Hayman et al., Journal of Biological Chemistry, 240, 877 (1965). The substrate employed was partially purified aldose reductase enzyme obtained from calf lens. The results obtained with each compound at a concentration of 10^-6 M are expressed as percent inhibition of enzyme activity.

[2] = test system: sorbitol accumulation in the sciatic nerve of streptozotocinized (i.e., diabetic) rats; test: inhibition of sorbitol accumulation in the sciatic nerve of streptozotocinized (diabetic) rats; format: in vivo; conditions: measured at 27 hours, vs untreated, values below 20 not always significant; for % Inhibition at mg/kg Dosage 1.5: 1.5 mg/kg orally at 4, 8 and 24 hours after streptozotocin
Experimental: Spiro-oxazolidindiones prepared as described in the above examples were tested for their ability to reduce or inhibit sorbitol accumulation in the sciatic nerve of streptozotocinized (i.e., diabetic) rats by the procedure essentially described in U.S. Pat. No. 3,821,383. In the present study, the amount of sorbitol accumulation in the sciatic nerves was measured 27 hours after induction of diabetes. The compounds were administered orally at the dose levels indicated at 4, 8 and 24 hours following the administration of streptozotocin. The results obtained in this manner are presented below in terms of percent inhibition afforded by the test compound as compared to the case where no compound was administered (i.e., the untreated animal where sorbitol levels normally rise from approximately […]. tissue to as high as 400 mM/g. tissue in the 27-hour test period). In this test values below 20 are not always experimentally and statistically significant.

Row | Structure (SMILES) | inhibition at 1 µM [1] [%] | % Inhibition at 10^-6 M [1] | % Inhibition at mg/kg Dosage 1.5 [2] [%] | % Inhibition at mg/kg Dosage 5 ([2]; 5 mg/kg orally at 4, 8 and 24 hours after streptozotocin) [%] | % Inhibition at mg/kg Dosage 15 ([2]; 15 mg/kg orally at 4, 8 and 24 hours after streptozotocin) [%]
1 | Cc1cc(Cl)cc2c1OCCC21OC(=O)NC1=O (stereo not drawn) [Example 33, 6-Chloro-8-methyl-spiro[4H-2,3-dihydrobenzopyran(4,5')oxazolidin]-2',4'-dione] | 81 | 99% | 33 |  | 
2 | O=C1NC(=O)C2(CCOc3ccc(F)cc32)O1 (stereo not drawn) [Example 28, 6-Fluoro-spiro[4H-2,3-dihydrobenzopyran(4,5')oxazolidin]-2',4'-dione] | 65 |  | 8 |  | 
3 | O=C1NC(=O)C2(CCSc3ccccc32)O1 (stereo not drawn) [Example 30, Spiro[4H-2,3-dihydrobenzothiopyran(4,5')oxazolidin]-2',4'-dione] | 42 |  |  |  | 
4 | O=C1NC(=O)C2(CCOc3c(Cl)cc(Cl)cc32)O1 (stereo not drawn) [Example 32, 6,8-Dichloro-spiro[4H-2,3-dihydrobenzopyran(4,5')oxazolidin]-2',4'-dione] | 100 |  | 44 |  | 
5 | O=C1NC(=O)C2(CCSc3ccc(F)cc32)O1 (stereo not drawn) [Example 31, 6-Fluoro-spiro[4H-2,3-dihydrobenzothiopyran(4,5')oxazolidin]-2',4'-dione] | 61 |  |  |  | 
6 | O=C1NC(=O)C2(CCSc3ccc(Cl)cc32)O1 (stereo not drawn) [Example 34, 6-Chloro-spiro[4H-2,3-dihydrobenzothiopyran(4,5')oxazolidin]-2',4'-dione] |  | 70% and 100% | 14 |  | 

Now from value to compound, other results behind:

Row | inhibition at 1 µM [1] [%] | % Inhibition at 10^-6 M [1] | Structure (SMILES) | % Inhibition at mg/kg Dosage 1.5 [2] [%] | % Inhibition at mg/kg Dosage 5 ([2]; 5 mg/kg orally at 4, 8 and 24 hours after streptozotocin) [%] | % Inhibition at mg/kg Dosage 15 ([2]; 15 mg/kg orally at 4, 8 and 24 hours after streptozotocin) [%]
7 | 100 | 87% | O=C1NC(=O)C2(CCOc3ccc(Br)cc32)O1 (stereo not drawn) [Example 29, 6-Bromo-spiro[4H-2,3-dihydrobenzopyran(4,5')oxazolidin]-2',4'-dione] | 35 |  | 
8 | 86 | 68% | O=C1NC(=O)C2(CCOc3ccc(Cl)cc32)O1 (stereo not drawn) [Example 3, 6-Chloro-spiro[4H-2,3-dihydrobenzopyran(4,5')oxazolidin]-2',4'-dione] | 28 |  | 
9 | 96 |  | O=C1NC(=O)C2(CCOc3ccc(Cl)cc32)O1 (single isomer, unassigned; (-)) [Example 35, (-)-6-Chloro-spiro[4H-2,3-dihydrobenzopyran(4,5')oxazolidin]-2',4'-dione] | 41 | 67 | 88
